Laboratory results from ChEMBL document CHEMBL1201862, “PubChem BioAssay data set” (2004).
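Where inhibition never reached the appropriate level, the endpoint shown equals the highest concentration tested. Otherwise, values were interpolated linearly from a five-concentration, 48-hour dose response in 96-well plates. Abbreviation: GI50, concentration required for 50% inhibition of growth.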 Activity calls are given as the source filed them. No stated cut-off is given here; in the data, active = GI50 up to about 1.1 µM and inactive = higher.

Experiments:
Experiment in all cases: DTP human tumour cell line panel, 48 h
LOX IMVI = test system: LOX IMVI
EKVX = test system: EKVX
Malme-3M = test system: Malme-3M
IGROV-1 = test system: IGROV-1
SK-MEL-28 = test system: SK-MEL-28
MDA-N = test system: MDA-N
OVCAR-4 = test system: OVCAR-4
HCT-116 = test system: HCT-116
SNB-19 = test system: SNB-19
NCI-H226 = test system: NCI-H226
UO-31 = test system: UO-31
T47D = test system: T47D
U-251 = test system: U-251
HOP-92 = test system: HOP-92
UACC-257 = test system: UACC-257
SW-620 = test system: SW-620
SN12C = test system: SN12C
HCT-15 = test system: HCT-15
SK-MEL-2 = test system: SK-MEL-2
CCRF-CEM = test system: CCRF-CEM
NCI-H23 = test system: NCI-H23
HOP-62 = test system: HOP-62
HCC 2998 = test system: HCC 2998
PC-3 = test system: PC-3
NCI/ADR-RES = test system: NCI/ADR-RES
SK-MEL-5 = test system: SK-MEL-5
Hs-578T = test system: Hs-578T
786-0 = test system: 786-0
BT-549 = test system: BT-549
CAKI-1 = test system: CAKI-1
MDA-MB-435 = test system: MDA-MB-435
NCI-H522 = test system: NCI-H522
SF-268 = test system: SF-268
OVCAR-8 = test system: OVCAR-8
DU-145 = test system: DU-145
MDA-MB-231 = test system: MDA-MB-231
KM12 = test system: KM12
COLO 205 = test system: COLO 205
TK-10 = test system: TK-10
ACHN = test system: ACHN
UACC-62 = test system: UACC-62
SNB-75 = test system: SNB-75
OVCAR-3 = test system: OVCAR-3
A498 = test system: A498
NCI-H460 = test system: NCI-H460
HT-29 = test system: HT-29
HL-60 = test system: HL-60
RPMI-8226 = test system: RPMI-8226
SF-295 = test system: SF-295
MCF7 = test system: MCF7
OVCAR-5 = test system: OVCAR-5
A549 = test system: A549
SR = test system: SR
M14 = test system: M14
RXF 393 = test system: RXF 393
MOLT-4 = test system: MOLT-4
SK-OV-3 = test system: SK-OV-3
SF-539 = test system: SF-539
K562 = test system: K562

Measured: GI50

O=c1c(C(c2ccc(O)cc2)c2c(O)oc3ccccc3c2=O)c(O)oc2ccccc12
36.6 µM: HCT-15
inactive: LOX IMVI 45.2 µM | EKVX > 100 µM | Malme-3M 86.9 µM | IGROV-1 66.2 µM | SK-MEL-28 55.5 µM | MDA-N 45.2 µM | OVCAR-4 > 100 µM | HCT-116 > 100 µM | SNB-19 71.8 µM | NCI-H226 > 100 µM | UO-31 > 100 µM | T47D > 100 µM | U-251 34.9 µM | HOP-92 78.5 µM | UACC-257 > 100 µM | SW-620 44.5 µM | SN12C 56.8 µM | SK-MEL-2 > 100 µM | CCRF-CEM 74.3 µM | NCI-H23 > 100 µM | HOP-62 96.8 µM | HCC 2998 46.3 µM | PC-3 > 100 µM | NCI/ADR-RES > 100 µM | SK-MEL-5 83.8 µM | Hs-578T > 100 µM | 786-0 58.2 µM | BT-549 59.8 µM | CAKI-1 85.9 µM | MDA-MB-435 98.9 µM | NCI-H522 22.5 µM | SF-268 16.2 µM | OVCAR-8 48.8 µM | DU-145 > 100 µM | MDA-MB-231 31.6 µM | KM12 > 100 µM | COLO 205 69.8 µM | TK-10 > 100 µM | ACHN > 100 µM | UACC-62 79.1 µM | SNB-75 30.9 µM | OVCAR-3 76.9 µM | A498 > 100 µM | NCI-H460 > 100 µM | HT-29 97.1 µM

O=C(O)CSc1n[nH]c(=O)[nH]c1=O
> 100 µM: HCT-15
inactive: LOX IMVI > 100 µM | EKVX > 100 µM | Malme-3M > 100 µM | IGROV-1 > 100 µM | SK-MEL-28 > 100 µM | MDA-N > 100 µM | OVCAR-4 > 100 µM | HCT-116 > 100 µM | SNB-19 > 100 µM | HL-60 > 100 µM | NCI-H226 > 100 µM | UO-31 > 100 µM | RPMI-8226 > 100 µM | T47D > 100 µM | U-251 > 100 µM | SF-295 > 100 µM | SW-620 > 100 µM | MCF7 > 100 µM | SN12C > 100 µM | OVCAR-5 > 100 µM | A549 > 100 µM | SK-MEL-2 > 100 µM | CCRF-CEM > 100 µM | NCI-H23 > 100 µM | HOP-62 > 100 µM | SR > 100 µM | M14 > 100 µM | PC-3 > 100 µM | NCI/ADR-RES > 100 µM | SK-MEL-5 > 100 µM | Hs-578T > 100 µM | RXF 393 > 100 µM | 786-0 > 100 µM | MOLT-4 > 100 µM | BT-549 > 100 µM | CAKI-1 > 100 µM | MDA-MB-435 > 100 µM | NCI-H522 > 100 µM | SF-268 > 100 µM | OVCAR-8 > 100 µM | DU-145 > 100 µM | MDA-MB-231 > 100 µM | KM12 > 100 µM | SK-OV-3 > 100 µM | COLO 205 > 100 µM | ACHN > 100 µM | UACC-62 > 100 µM | SNB-75 > 100 µM | SF-539 > 100 µM | OVCAR-3 74.8 µM | A498 > 100 µM | NCI-H460 > 100 µM | HT-29 > 100 µM | K562 > 100 µM

Cc1ccc(CC(=O)Nc2ccc(NC(=O)/C=C/NC(=O)/C=C/c3ccc(-c4ccccc4)cc3)cc2C(=O)c2ccccc2)cc1
active: IGROV-1 0.975 µM | HCT-116 1.12 µM | HCC 2998 0.0237 µM | OVCAR-8 0.871 µM
inactive: LOX IMVI 2.03 µM | EKVX 1.32 µM | Malme-3M 3.39 µM | SK-MEL-28 3.03 µM | MDA-N 2.5 µM | OVCAR-4 1.48 µM | SNB-19 3.05 µM | HL-60 16.9 µM | NCI-H226 2.42 µM | UO-31 3.67 µM | RPMI-8226 2.4 µM | T47D 2.84 µM | U-251 1.85 µM | SF-295 1.36 µM | UACC-257 2.05 µM | SW-620 1.57 µM | MCF7 1.72 µM | SN12C 1.92 µM | OVCAR-5 2.09 µM | A549 1.77 µM | SK-MEL-2 1.89 µM | CCRF-CEM 2.16 µM | NCI-H23 1.85 µM | HOP-62 2.11 µM | M14 2.56 µM | PC-3 1.47 µM | NCI/ADR-RES 5.41 µM | SK-MEL-5 2.09 µM | Hs-578T 1.73 µM | RXF 393 1.46 µM | 786-0 1.6 µM | MOLT-4 4.17 µM | BT-549 1.46 µM | CAKI-1 3.29 µM | MDA-MB-435 3.27 µM | SF-268 2.62 µM | DU-145 3.94 µM | MDA-MB-231 1.87 µM | KM12 2.93 µM | SK-OV-3 1.85 µM | COLO 205 1.75 µM | TK-10 2.78 µM | ACHN 3.08 µM | UACC-62 2.16 µM | SNB-75 1.93 µM | SF-539 1.67 µM | OVCAR-3 1.88 µM | A498 2.31 µM | NCI-H460 1.87 µM | HT-29 5.06 µM | K562 11.1 µM
2.7 µM: HCT-15
